Common to all, as to format: cell-based
Test [1] relates to HEK293 clonal cell line overexpressing APOL1 G1. Description: APOL1 G1 HEK293 cell rescue assay (Example B3). The note with it: geometric mean of at least 2 runs, † = single run, ¥ = concentration at 50% rescue estimated (no sigmoidal curve). A digest of the protocol:
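Rescue of cell death caused by APOL1 G1 overexpression was measured in a clonal HEK293 line. Compounds were tested in duplicate on one plate, and EC50s were geometric means across at least two runs on different days. Some values are estimated 50%-rescue concentrations where curve fitting failed.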

For test [2], the system named is Trypanosoma brucei Lister 427 VSG221 with APOL1 G1 recombinant protein. The experiment in a line: APOL1 G1 trypanosome cell rescue assay (Example B5). The note with it: Trypanosoma brucei, 20 h, read-out: APOL1 G1 Trypanosome Rescue EC50, Trypanosoma brucei Lister 427 VSG221 with APOL1 G1 recombinant protein, 20 hours, CellTiter-Glo; geometric mean of at least 2 assay runs; † = single assay run. A digest of the protocol: (§1)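 Luminescent ATP read-out (CellTiter-Glo) of trypanosome viability after 20 h at 37° C. Bloodstream T. brucei Lister 427 VSG221, 250/well in modified HMI-9, were exposed to recombinant mature APOL1 (aa 28-398) from a 2 μg/mL addition, plus compound in 11-point 2-fold series.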

Test [3] deals with Trypanosoma brucei Lister 427 VSG221 with APOL1 G2 recombinant protein. Description: APOL1 G2 trypanosome cell rescue assay (Example B5). The settings on record: Trypanosoma brucei, 20 h, read-out: APOL1 G2 Trypanosome Rescue EC50, Trypanosoma brucei Lister 427 VSG221 with APOL1 G2 recombinant protein, 20 hours, CellTiter-Glo; geometric mean of at least 2 assay runs; † = single assay run. A digest of the protocol:
as §1
(In general: Cellular ATP, detected with luciferase, serves as a proxy for viable cell number.)

Setting [4] is: Homo sapiens, HEK293, HEK293 clonal line overexpressing APOL1 G1.

A word on the EC50: it is the concentration needed to bring the measured effect to its halfway point.

On to `CN1C(=O)C2(CCN(CCOc3ccc(C(=O)N4CCS(=O)(=O)CC4)c(C(F)(F)F)c3)CC2)c2cc(C#N)ccc21` [Compound 261, 1′-{2-[4-(1,1-dioxo-1λ^6-thiomorpholine-4-carbonyl)-3-(trifluoromethyl)phenoxy]ethyl}-1-methyl-2-oxo-1,2-dihydrospiro[indole-3,4′-piperidine]-5-carbonitrile], for which the EC50 in test [1] (setting [4]) is 167 nM; in test [2], 100 nM; in test [3], 29.6 nM.

As for `CN1C(=O)C2(CCN(CCOc3ccc(S(=O)(=O)CCCS(C)(=O)=O)cc3)CC2)c2cc(Cl)ccc21` [Compound 23, 5-chloro-1′-{2-[4-(3-methanesulfonylpropanesulfonyl)phenoxy]ethyl}-1-methyl-1,2-dihydrospiro[indole-3,4′-piperidin]-2-one], the concentration giving a half-maximal response (EC50) is 449 nM in test [1] (setting [4]), 612 nM in test [2] and 113 nM in test [3].

`CC(COc1ccc2c(c1)CCC(=O)N2C)N1CCC2(CC1)C(=O)Nc1ccc(C#N)cc12` (single isomer, unassigned) [Compound 203, (S) or (R)-1′-{1-[(1-methyl-2-oxo-1,2,3,4-tetrahydroquinolin-6-yl)oxy]propan-2-yl}-2-oxo-1,2-dihydrospiro[indole-3,4′-piperidine]-5-carbonitrile]: the results for the EC50 in test [1] (HEK293 clonal line overexpressing APOL1 G1), in test [2] and in test [3] were 457 nM, 583 nM and 227 nM, respectively.

On to `C[C@@H](COc1ccc(S(C)(=O)=O)c(C(F)F)c1)N1CCC2(CC1)C(=O)Nc1ccc(C#N)cc12` (single isomer, unassigned) [Compound 212], for which the values for the EC50 in test [1] (setting [4]), in test [2] and in test [3] were 192 nM, 103 nM and 32.1 nM, respectively.

`C[C@]1(O)C[C@@H](N2C(=O)OCc3cc(OCCN4CCC5(CC4)C(=O)Nc4ccc(Cl)cc45)cnc32)C1` [Compound 289, 5-chloro-1′-[2-({2-oxo-1-[(cis)-3-hydroxy-3-methylcyclobutyl]-1H,2H,4H-pyrido[2,3-d][1,3]oxazin-6-yl]oxy)ethyl]-1,2-dihydrospiro[indole-3,4′-piperidin]-2-one]: the EC50 was 50.6 nM in test [1] (setting [4]), 51.9 nM in test [2] and 15.7 nM in test [3].

Take `CN1C(=O)CCc2cc(OCCN3CCC4(CC3)C(=O)Nc3ccc(Cl)cc34)ccc21` [Compound 27, 5-chloro-1′-[2-[(1-methyl-2-oxo-3,4-dihydroquinolin-6-yl)oxy]ethyl]spiro[indoline-3,4′-piperidine]-2-one]: the EC50 in test [1] (setting [4]) is 186 nM; in test [2] it was 269 nM; in test [3], 66.3 nM.

Regarding `CS(=O)(=O)c1ccc(OCCN2CCC3(CC2)C(=O)N(CCO)c2ccc(Cl)cc23)cc1C(F)F` [Compound 265, 5-chloro-1′-{2-[3-(difluoromethyl)-4-methanesulfonylphenoxy]ethyl}-1-(2-hydroxyethyl)-1,2-dihydrospiro[indole-3,4′-piperidin]-2-one], the EC50 in test [1] (setting [4]) is 132 nM; in test [2], 105 nM; in test [3], 23.1 nM.

Take `CS(=O)(=O)c1ccc(OCCN2CCC3(CC2)C(=O)N(CCO)c2ccc(C#N)cc23)cc1C(F)F` [Compound 266, 1′-{2-[3-(difluoromethyl)-4-methanesulfonylphenoxy]ethyl}-1-(2-hydroxyethyl)-2-oxo-1,2-dihydrospiro[indole-3,4′-piperidine]-5-carbonitrile]: the EC50 in test [1] (setting [4]) was 353 nM; in test [2], 407 nM; in test [3] it was 77.1 nM.

Regarding `O=C(c1ccc(OCCN2CCC3(CC2)C(=O)Nc2ccc(Cl)cc23)cc1F)N1CC2(C1)CS(=O)(=O)C2` [Compound 239, 6-[4-(2-{5-chloro-2-oxo-1,2-dihydrospiro[indole-3,4′-piperidin]-1′-yl}ethoxy)-2-fluorobenzoyl]-2λ^6-thia-6-azaspiro[3.3]heptane-2,2-dione], the EC50 was 191 nM in test [1] (setting [4]), 48.8 nM in test [2] and 14.8 nM in test [3].

As to `C[C@]1(O)C[C@@H](N2C(=O)CCc3cc(OCCN4CCC5(CC4)C(=O)Nc4ccc(C(F)F)cc45)cnc32)C1` [Compound 274, 5-(difluoromethyl)-1′-[2-({7-oxo-8-[(cis)-3-hydroxy-3-methylcyclobutyl]-5,6,7,8-tetrahydro-1,8-naphthyridin-3-yl}oxy)ethyl]-1,2-dihydrospiro[indole-3,4′-piperidin]-2-one], the EC50 in test [1] (setting [4]) is 99.9 nM; in test [2], 58.4 nM; in test [3], 17.2 nM.

Regarding `CC[C@]1(O)C[C@H](N2C(=O)CCc3cc(OCCN4CCC5(CC4)C(=O)Nc4ccc(Cl)cc45)cnc32)C1` (single isomer, unassigned) [Compound 290, 5-chloro-1′-[2-({7-oxo-8-[(trans)-3-ethyl-3-hydroxycyclobutyl]-5,6,7,8-tetrahydro-1,8-naphthyridin-3-yl}oxy)ethyl]-1,2-dihydrospiro[indole-3,4′-piperidin]-2-one], the EC50 is 63.9 nM in test [1] (setting [4]), 69.2 nM in test [2] and 24 nM in test [3].

With `O=C1CCc2cc(OCCN3CCC4(CC3)C(=O)Nc3ccc(Cl)cc34)cnc2N1CCO` [Compound 192, 5-chloro-1′-(2-{[8-(2-hydroxyethyl)-7-oxo-5,6,7,8-tetrahydro-1,8-naphthyridin-3-yl]oxy}ethyl)-1,2-dihydrospiro[indole-3,4′-piperidin]-2-one], the results for the EC50 in test [1] (setting [4]), in test [2] and in test [3] were 126 nM, 142 nM and 49.1 nM, respectively.

In the case of `O=C1Nc2ccc(Cl)cc2C12CCN(CCOc1ccc(S(=O)(=O)C3(CO)CC3)nc1)CC2` [Compound 248, 5-chloro-1′-{2-[(6-{[1-(hydroxymethyl)cyclopropyl]sulfonyl}pyridin-3-yl)oxy]ethyl}-1,2-dihydrospiro[indole-3,4′-piperidin]-2-one], the EC50 in test [1] (setting [4]) was 219 nM; in test [2], 126 nM; in test [3], 37.9 nM.

For the compound `O=C(c1ccc(OCCN2CCC3(CC2)C(=O)Nc2ccc(Cl)cc23)cc1C(F)(F)F)N1CCS(=O)(=O)CC1` [Compound 272, 4-[4-(2-{5-chloro-2-oxo-1,2-dihydrospiro[indole-3,4′-piperidin]-1′-yl}ethoxy)-2-(trifluoromethyl)benzoyl]-1λ^6-thiomorpholine-1,1-dione], the results for the EC50 in test [1] (setting [4]), in test [2] and in test [3] were 148 nM, 73.2 nM and 18.9 nM, respectively.

On to `CC(O)c1ncc(OCCN2CCC3(CC2)C(=O)Nc2ccc(Cl)cc23)cn1` (stereo not drawn) [Compound 284, 5-chloro-1′-(2-{[2-(1-hydroxyethyl)pyrimidin-5-yl]oxy}ethyl)-1,2-dihydrospiro[indole-3,4′-piperidin]-2-one], for which the EC50 in test [1] (setting [4]) is 775 nM; in test [2], 943 nM; in test [3] it was 235 nM.

The values above are taken from patent publication US12344610B2, “APOL1 inhibitors and methods of use” (Maze Therapeutics, Inc., priority 2022, dated 2025).
